SMILES strings stand for the structures.

For this assay, the system named is T47D (PIK3CA H1047R) cells. Briefly: PS473 AKT assay in T47D (PIK3CA H1047R) cells. The settings on record: Homo sapiens, pSer473 AKT, DMEM with 2.5% FBS, compound treatment 2 h, read-out: T47D_IC50. The class given is cell-based. As for the experimental part:
T47D (PIK3CA H1047R) cells were cultured using 10-cm petri dishes with recommended medium plus 10% fetal bovine serum. One day before the assay, cells were seeded in 96-well plates. After overnight incubation, the medium was changed to DMEM with 2.5% fetal bovine serum (FBS) and the cells were treated with different concentrations of the compounds for 2 h. Cells were then fixed using 4% paraformaldehyde at room temperature for 20 min. Aspirate 4% paraformaldehyde, and wash cells using 1× regular phosphate buffered saline 3 times, 5 min each. Aspirate any residual phosphate buffered saline and block cells using 10% goat serum containing 1% bovine serum albumin and 0.3% Triton X-100 at room temperature for 1 h. Without any additional washing, primary antibodies (rabbit anti-pSer473 AKT) were diluted using blocking buffer and added at a final volume of 50 microliter per well. Keep assay plates with primary antibodies overnight at 4° C. Wash cells using 1× regular phosphate buffered saline 3 times, 5 min each. After the final wash, incubate cells with horseradish peroxidase-conjugated secondary antibodies (goat Anti-rabbit IgG) diluted using the same blocking buffer at room temperature for 1 h. Wash cells thoroughly using 1× regular phosphate buffered saline 3 times, 5 min each. Aspirate any residual phosphate buffered saline. Add Super-Signal ELISA Pico Chemiluminescent Substrate at a final volume of 100 microliter per well. Read plates on i3x Multi-Mode Microplate Reader and calculate IC50 values using GraphPad Prism software.
Consider `Cc1cc(C(C)Nc2ccc(C)nc2C(=O)O)c2nc3n(c(=O)c2c1)CCc1ccccc1-3` (centres unmarked) [Example 4, 6-Methyl-3-((1-(10-methyl-8-oxo-5,8-dihydro-6H-isoquinolino[1,2-b]quinazolin-12-yl)ethyl)amino)picolinic acid], for which the IC50 is under 1000 nM.
The value for `CCN1CCn2c1nc1c(C(C)Nc3ccccc3C(=O)O)cc(C)cc1c2=O` (centres unmarked) [Example 1, 2-((1-(1-Ethyl-7-methyl-5-oxo-1,2,3,5-tetrahydroimidazo[2,1-b]quinazolin-9-yl)ethyl)amino)benzoic acid] was 1000 to 5000 nM; that for `CCN1CCn2c1nc1c(C(C)Nc3ccc(Cl)nc3C(=O)O)cc(C)cc1c2=O` (centres unmarked) [Example 2, 6-Chloro-3-((1-(1-ethyl-7-methyl-5-oxo-1,2,3,5-tetrahydroimidazo[2,1-b]quinazolin-9-yl)ethyl)amino)picolinic acid] was under 1000 nM; that for `Cc1cc(C(C)Nc2ccc(Cl)nc2C(=O)O)c2nc3n(c(=O)c2c1)CCc1ccccc1-3` (centres unmarked) [Example 5, 6-Chloro-3-((1-(10-methyl-8-oxo-5,8-dihydro-6H-isoquinolino[1,2-b]quinazolin-12-yl)ethyl)amino)picolinic acid] was under 1000 nM.
The result for `Cc1cc(C(C)Nc2ccccc2C(=O)O)c2nc3n(c(=O)c2c1)CCc1ccccc1-3` (centres unmarked) [Example 3, 2-((1-(10-Methyl-8-oxo-5,8-dihydro-6H-isoquinolino[1,2-b]quinazolin-12-yl)ethyl)amino)benzoic acid] reads under 1000 nM.

The record behind these values is patent US20260226059A1, “HETEROCYCLIC COMPOUNDS AS PI3Ka INHIBITORS” (Pikavation Therapeutics, Inc., priority 2023, published 2026).
